Laboratory results taken from patent publication US12161753B2, “Sustained release biodegradable intracanalicular inserts comprising a hydrogel and an active agent” (OCULAR THERAPEUTIX, INC., priority 2020, dated 2024).
Values joined by “and” are separate entries in the source; they are usually repeats but may differ in a detail not shown here. Equal entries are not always repeated. Where two headings read alike, the source gives them in different places.

Key:
[1] = Particle size of cyclosporine by laser diffraction (effect of surfactants); format: physicochemical; settings: no surfactant
[2] = for Cyclosporine per insert (left in removed insert), OD: beagles, initial dose 671±13 μg
immunomodulation = settings: Tang-Liu and Acheampong, Clin. Pharmacokinet. 44(3); cited from earlier work
[3] = beagle, insert 0.7 mg cyclosporine, 4a20K SAZ/trilysine
[4] = Example 3.2 proof-of-concept PK study: tear fluid concentration and drug released from inserts; format: in vivo, beagle dogs; settings: beagle; insert 0.44 mg cyclosporine, 4a20K SG/trilysine; over 32 days
From the text: Inserts were removed at 32 days to determine the amount of remaining drug compared to the administered dose.

CC=CCC(C)C(O)C1C(=O)NC(CC)C(=O)N(C)CC(=O)N(C)C(CC(C)C)C(=O)NC(C(C)C)C(=O)N(C)C(CC(C)C)C(=O)NC(C)C(=O)NC(C)C(=O)N(C)C(CC(C)C)C(=O)N(C)C(CC(C)C)C(=O)N(C)C(C(C)C)C(=O)N1C (centres unmarked) [Cyclosporine, 30-ethyl-33-(1-hydroxy-2-methylhex-4-enyl)-1,4,7,10,12,15,19,25,28-nonamethyl-6,9,18,24-tetrakis(2-methylpropyl)-3,21-di(propan-2-yl)-1,4,7,10,13,16,19,22,25,28,31-undecazacyclotritriacontane-2,5,8,11,14,17,20,23,26,29,32-undecone]
D10 [Average] ([1]; in DIW): 4 μm
D10 [Average] ([1]; in PBS): 4.1 μm
Released amount ([2]; beagle, insert 0.67 mg cyclosporine, 4a20K SG/trilysine, 28 days): 3.4 µg
Released amount ([2]; beagle, insert 0.67 mg cyclosporine, 4a20K SG/trilysine, 50 days): 3.5 µg
Daily estimated delivered dose ([2]; beagle, insert 0.67 mg cyclosporine, 4a20K SG/trilysine, over 28 and 50 days): approximately 3.5 μg/day
Cyclosporine per insert (left in removed insert), OD ([2]; insert removed at Day 28, single inserts): 596 µg
Cyclosporine per insert (left in removed insert), OD ([2]; insert removed at Day 50, single inserts): 451 µg and 520 µg and 521 µg
Cyclosporine concentration considered to be required for immunomodulation (immunomodulation): 0.236 µg/mL
Average amount of cyclosporine released in 6 weeks ([3]; inserts removed at 6 weeks): 0.37 mg
Estimated daily delivered dose ([3]; over 6 weeks): 8.8 µg/day
Estimated daily delivered dose [4]: 6.3 µg/day
